Laboratory results taken from patent US11034839B2, “Compounds, linked with haptens, for the detection of senescent cells” (THE UNIVERSITY OF MANCHESTER, priority 2016, dated 2021).

Legend:
[1] = test system: human diploid lung fibroblasts (DLFs) and human bronchial epithelial cells (HBEC-Cdc6 Tet-ON); assay: IHC staining versus proliferation markers (Ki67 and BrdU incorporation); assay type: cell-based; details: FIG. 16
[2] = test system: senescent cells in induced Saos2-p21 cells and irradiated human diploid lung fibroblasts (DLFs); assay: Streptavidin-HRP/DAB labeling of cell spreads; assay type: cell-based; details: cell spreads on cover slips, panels 6ai and 6bi
Experimental: In inventive example 3, the derivative […] was used to detect senescent cells in cell spreads using streptavidin-horse radish peroxidase (HRP)/DAB labeling.
Induced and non-induced Saos2-p21^WAF1/Cip1 […] cells as well as human lung fibroblasts (DLFs) non- and y-irradiated were grown on cover slips and collected before and after the mentioned respective treatments for induction of senescence. Cover slips were treated as follows: • a. Fixation in ice-cold ethanol or methanol for 4 min. • b. Blocking of endogenous peroxidase activity with 3% H2O2 for 10 min. • c. Quick wash in 50% (v/v) ethanol. • d. Application of LG13 dye, diluted in ethanol and filtered, on cells for 10 min. • e. Quick wash in 50% (v/v) ethanol. • f. Transfer and wash in TBS or PBS solution. • g. Incubation in streptavidin-HRP (horse radish peroxidase) conjugated (dilution 1/200), for ½ hr at room temperature. • h. Quick wash in TBS or PBS solution. • i. Staining with 3,3′-Diaminobenzidine (DAB) solution (dilution 1/300 in TBS or PBS) for 1 min at room temperature. • j. Counterstain with Nuclear Fast Red, followed by mounting with glycerol and sealing with a cover slip. • k. Microscopy observation.

[3] = test system: senescent cells in cellular systems, mouse models and human clinical samples; assay: Double staining with Ki67, p16INK4A or p21WAF1/Cip1
Experimental: • 1. Compound (LG13) • 2. 100% ethanol (100% EtOH) • 3. Parafilm • 4. Fritted glass filter of medium porosity • 5. Airtight Dye Container 2.2.2 General Procedure: • 1. Dissolve 40 mg of the compound (LG13) in 7.4 ml 100% EtOH in a glass beaker and cover it with parafilm. • 2. Incubate at 56° C. in a waterbath for 120 min until the compound is completely dissolved. 2.3. General Method for Compound (LG13) Staining 2.3.1 Materials: • 1. Xylene • 2. […] Syringe • 4. 13 mm filter, membrane 0.22 μm • 5. Soft paper (dry or dipped in ethanol) • 6. Anti-biotin antibody ([Hyb-8] ab201341, Abcam) • 7. Ultravision Quanto Detection System HRP DAB kit (Cat no: TL-125-QHD) • 8. Glycerol (Sigma-Aldrich) • 9. Tris Buffered Saline (TBS; 10×): 1.5 M NaCl, 0.1 M Tris-HCl, pH 7.4. Store at 4° C. • 10. 0.5% Triton X/TBS: 0.5 ml Triton X diluted in 99.5 ml TBS • 11. Mounting media Glycergel (DakoCytomation). • 12. Light Microscope • 13. Anti-p21^WAF1/Cip1 mouse primary antibody [(F-5)(sc-6246) Santa-Cruz] • 14. Anti-p16^INK4A mouse primary antibody [(sc-74401) Santa-Cruz] • 15. Anti-Ki67 rabbit polyclonal antibody [ab16667, Abcam] • 16. Secondary goat anti-mouse antibody Alexa Fluor 568 conjugated [Thermo Fisher Scientific (Cat no: A-11004)] • 17. DAPI (4′,6-Diamidino-2-Phenylindole, Dihydrochloride) [Thermo Fisher Scientific (Cat no: D1306)] • 18. Fluorescence microscope 2.3.2 General Procedures: 2.3.2.1 General Staining Protocol for Cells Mounted on Coverslips • 1. Wash ×1 in TBS for 5 min at RT. • 2. Block the endogenous hydrogen peroxidase, using the UltraVision Hydrogen Peroxide Block included in the Ultravision Quanto Detection System HRP DAB kit (Cat no: TL-125-QHD) for 10 min at RT and in dark conditions. • 3. Wash ×2 in TBS for 30 sec and ×1 for 5 min at RT. • 4. Wash ×1 in EtOH 50% for 5 min at RT. • 5. Wash ×1 EtOH 70% for 5 min at RT. • 6. […] The staining reaction is monitored under the light microscope until detection of the signal (average time 5-8 min). • 8. […] The staining reaction is monitored under the light microscope until detection of the dark brown signal (average time 30 sec-1 min) at RT 1. • 20. […]

CC1(COC(=O)CCCC[C@H]2SC[C@H]3NC(=O)N[C@H]32)Nc2cccc3c(/N=N/c4ccc(/N=N/c5ccccc5)c5ccccc45)ccc(c23)N1 (stereo partly drawn) [LG13, (2-methyl-6-((E)-(4-((E)-phenyldiazenyl)naphthalen-1-yl)diazenyl)-2,3-dihydro-1H-perimidin-2-yl)methyl 5-((3aR,4R,6aS)-2-oxohexahydro-1H-thieno[3,4-d]imidazol-4-yl)pentanoate]
relationship between IHC staining and proliferation markers (Ki67 and BrdU incorporation) [1]: Inverse relationship | colour of senescent cells after streptavidin-HRP/DAB detection [2]: clear dark-brown color | relationship between Ki67 expression and compound staining ([3]; double staining in cell culture systems and human clinical samples, FIG. 11): Strict inverse relationship | compound staining of senescent cells with nuclear p16INK4A or p21WAF1/Cip1 expression ([3]; irradiated DLFs, induced Saos2-p21 Tet-ON, K-rasV12 mouse lung adenoma, irradiated human breast samples, FIG. 12i): concurrently positive | relationship between nuclear Ki67 positivity and compound staining ([3]; lung sections, mouse bleomycin-induced lung fibrosis, FIG. 12ii): strict inverse relationship
